Assay results as given in PMC9356065, “Novel psoralen derivatives as anti-breast cancer agents and their light-activated cytotoxicity against HER2 positive breast cancer cells” (Scientific Reports, 2022).

Columns and labels:
MDA-MB-231 [1] = experiment: MTT cytotoxicity, 48 h, without UVA; format: cell-based; conditions: Homo sapiens, MDA-MB-231, light or radiation study; for IC50: hormone-independent breast cancer, read-out: Cytotoxic activity MDA-MB-231 IC50
Description: (§1) MDA-MB-231 (triple-negative breast cancer) was obtained from M.D. Anderson Cancer Center, Houston, TX, USA). T47-D (hormone-dependent breast carcinoma), SK-BR-3 (human HER2+ breast cancer), and MRC-5 (normal embryonic lung fibroblast) were obtained from the American Type Culture Collection (ATCC, Manassas, VA, USA).
(§2) The cytotoxic effect of tested compounds was evaluated in two breast cancer cell lines, MDA-MB-231 and T47-D. Number of survival cells after exposure to tested compounds for 48 h was determined by MTT assay, as previously described.

SK-BR-3 [2] = experiment: Dark and light-activated (UVA) cytotoxicity, MTT; format: cell-based, human; conditions: for IC50: Homo sapiens, SK-BR-3, light or radiation study, irradiation with UVA (2.0 J cm^−2), HER2+ breast cancer
Description: (§3) The selected compounds were screened for their IC50 values against both HER2+ breast cancer (SK-BR-3), and HER2− breast cancer (MDA-MB-231) in both dark and light-activated conditions (Table 2). Additionally, a negative control study was also performed with SK-BR-3 and MDA-MB-231 cells in the absence of tested compound under UVA irradiation (See Fig S7., Supporting Information).
(§4) SK-BR-3 and MDA-MB-231 cells were seeded into 96-well cell culture plates at 5 × 10^3 cells/well and incubated for 24 h at 37 °C under 5% CO2. After that, the cells were treated with 50 μM of psoralen derivatives in DMEM with 10% FBS and the cells were continued incubation for another 4 h. After incubation, the cells were washed with PBS (3 times) and then irradiated by a 365 nm lamp with the light intensity of 2.0 J cm^−2 for 12.5 min before re-incubation for another 72 h. After incubation, the cell was treated with methylthiazolyldiphenyl-tetrazolium bromide (MTT reagent 200 μL, 0.5 mg mL^−1, Sigma-Aldrich) for 2 h. After reagent removal, DMSO was added to dissolve the formazan product and the cell viabilities were determined through UV–Vis absorption of the resulting formazan at wavelength 560 nm using a microplate reader (BMG Labtech/SPECTROstar Nano). The cell morphology images were captured by using a light microscope (Microscope Nikon, inverted digital) at 20X magnification prior to treating with MTT reagent.

T47-D = experiment: MTT cytotoxicity, 48 h, without UVA; format: cell-based, human; conditions: for IC50: hormone-dependent breast cancer, read-out: Cytotoxic activity T47-D IC50; for Selectivity Index (SI): SI = IC50 for MRC-5/IC50 for T47-D
Description: (§5) Additionally, the cytotoxicity towards normal cells, human embryonal lung fibroblast cell MRC-5 was also assessed.
as §1, §2

[3] = tested on: circulating estrogen levels; set-up: method as in PMID 10098905; conditions: female rats, dose-dependent; cited from earlier work
SK-BR-3 [4] = experiment: Dark and light-activated (UVA) cytotoxicity, MTT; format: cell-based; conditions: Homo sapiens, dark, HER2+ breast cancer
MDA-MB-231 [5] = experiment: Dark and light-activated (UVA) cytotoxicity, MTT; format: cell-based; conditions: Homo sapiens, MDA-MB-231, light or radiation study; irradiation with UVA (2.0 J cm^−2); HER2− breast cancer
Description: as §3, §4

MDA-MB-231 [6] = experiment: Dark and light-activated (UVA) cytotoxicity, MTT; format: cell-based; conditions: Homo sapiens, dark, HER2− breast cancer
3T3 = tested on: 3T3; set-up: method as in PMID 32815004, PMID 20693013; conditions: cited from earlier work
SK-BR-3 cells = experiment: Cell morphology by light microscope; format: cell-based, human; conditions: 48 h
Description: as §4, with “After incubation, the cells were washed with PBS (3 times) and then irradiated by a 365 nm lamp with the light intensity of 2.0 J cm^−2 for 12.5 min before re-incubation for another 72 h.” left out

[7] = MTT cytotoxicity towards normal cells, 48 h; format: cell-based; conditions: MRC-5 cells (normal embryonic lung fibroblasts), human embryonal lung fibroblast cell, without UVA, read-out: Cytotoxic activity MRC-5 IC50
Description: as §5, §1, §2

[8] = Inhibition of superoxide radical formation by xanthine/xanthine oxidase (XXO); format: biochemical; conditions: screening concentration 500 µM
Text: 1. […]

[9] = tested on: differentiated HL-60 cells; experiment: Inhibition of TPA-induced superoxide anion radical generation (HL-60 Antioxidant); format: cell-based, human; conditions: Homo sapiens, HL-60; screening concentration 100 µM; read-out: HL-60 Antiox. %Inh
Text: Inhibition of 12-O-tetradecanoylphorbol-13-acetate (TPA)-induced superoxide anion radical generation in differentiated HL-60 cells (HL-60 Antioxidant) TPA-induced superoxide anion radical formation was detected in differentiated HL-60 cells by photometric determination of cytochrome c reduction as previously described by Gerhäuser et al., 2003.ii Superoxide dismutase (SOD;15U) was a positive control. […]

[10] = Scavenging of diphenyl-picryl-hydrazyl radicals (DPPH); conditions: screening concentration 250 µM
Text: 1. Chemoprevention activity

aromatase (CYP19) = target: T1, aromatase (CYP19) (Homo sapiens, UniProt P11511); experiment: Inhibition of aromatase (AIA); format: biochemical; conditions: at 12.5 µM; I = %inhibition lower than 50%; read-out: Aromatase inhibitory activity %Inhibition
T1 sequence (P11511 1-503): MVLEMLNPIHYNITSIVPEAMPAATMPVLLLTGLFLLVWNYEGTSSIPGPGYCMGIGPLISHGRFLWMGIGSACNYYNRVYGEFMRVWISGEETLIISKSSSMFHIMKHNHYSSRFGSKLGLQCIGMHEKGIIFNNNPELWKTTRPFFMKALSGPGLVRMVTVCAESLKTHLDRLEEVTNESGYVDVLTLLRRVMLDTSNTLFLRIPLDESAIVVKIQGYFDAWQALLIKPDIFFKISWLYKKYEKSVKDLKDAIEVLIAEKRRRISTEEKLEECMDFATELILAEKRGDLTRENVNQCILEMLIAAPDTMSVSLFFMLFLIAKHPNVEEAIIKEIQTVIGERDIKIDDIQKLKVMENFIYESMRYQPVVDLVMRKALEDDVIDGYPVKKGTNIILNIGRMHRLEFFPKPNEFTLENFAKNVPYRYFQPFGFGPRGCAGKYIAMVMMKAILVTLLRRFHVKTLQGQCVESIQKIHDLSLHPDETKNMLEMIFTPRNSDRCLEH
Description: Estrogens are the critical risk factor for breast cancer initiation and progression and the aromatase enzyme involves in the final step conversion of androgens to estrogens[21],[22]. […] In this study, the synthesized psoralen derivatives were also tested for aromatase inhibitory activity (AIA) which is considered to be one of chemopreventive mechanisms for hormone dependent breast cancer.
Inhibition of the aromatase was performed using the method designed by Stresser et al.[39].

[11] = tested on: ERα activity in MCF-7 cells; set-up: method as in PMID 31673107; conditions: read-out: IC50 antagonism of ERα activity in MCF-7 cells; cited from earlier work
[12] = tested on: estrogen receptor in MCF-7 breast cancer cells; set-up: method as in PMID 23053665; conditions: MCF-7 breast cancer cells and tamoxifen-resistant clone; cited from earlier work
[13] = Homo sapiens, T47D, light or radiation study, 48 h, without UVA

| SMILES | IC50 (SK-BR-3 [2]) [µM] | circulating estrogen levels [3] | IC50 (SK-BR-3 [4]) [µM] | IC50 (MDA-MB-231 [5]) [µM] | IC50 (MDA-MB-231 [6]) [µM] | IC50 (MDA-MB-231 [1]) [µM] | IC50 (T47-D; [13]) [µM] | Selectivity Index (SI) (T47-D) | IC50 at 48 h [7] [µM] | also measured |
| --- | --- | --- | --- | --- | --- | --- | --- | --- | --- | --- |
| COc1c2occc2cc2ccc(=O)oc12 [8-MOP, 8-methoxypsoralen, reference compound] | 24.7 ± 3.02 | significantly reduced | > 100 | > 100 | > 100 |  |  |  |  | inhibition at 50 µg/mL (MDA-MB-231 [1]; I = %inhibition lower than 50%, read-out: Cytotoxic activity MDA-MB-231 %Inhibition): 6%; dark and light-activated cytotoxicity against SK-BR-3 (%viability screening) (SK-BR-3 [2]; 50 µM, absence and presence of UVA (2.0 J cm^−2), Fig. 3): little to no activity; inhibition at 50 µg/mL (T47-D; Homo sapiens, T47D, light or radiation study, 48 h, without UVA, I = %inhibition lower than 50%, read-out: Cytotoxic activity T47-D %Inhibition): 16% |
| CS(=O)(=O)CCNCc1ccc(-c2ccc3ncnc(Nc4ccc(OCc5cccc(F)c5)c(Cl)c4)c3c2)o1 [Lapatinib, reference compound] | 0.16 ± 0.03 |  | 25.3 ± 0.99 | 8.6 ± 0.82 | 73 ± 2.53 | 53.37 ± 0.31 | 9.78 ± 0.46 | 5.0 | 48.8 ± 9.45 | phototoxic potential (3T3 NRU assay) (3T3): phototoxic potential; morphology of SK-BR-3 cells under light activation (SK-BR-3 cells; UVA 2.0 J cm^−2): morphological changes indicating apoptosis; morphology of SK-BR-3 cells under dark condition (SK-BR-3 cells; dark): morphological changes indicating apoptosis |
| COc1c2occc2c(NC(=O)c2cccc([N+](=O)[O-])c2)c2ccc(=O)oc12 [3f, N-(9-Methoxy-7-oxo-7H-furo[3,2-g]chromen-4-yl)-3-nitrobenzamide] |  |  |  |  |  | 71 ± 2.34 | 49.8 ± 0.5 | 1.6 | 77.3 ± 3.52 | XXO %Inh [8]: 33%; inhibition at 100 µM [9]: 7%; DPPH %Inh [10]: 1%; melting point: 267 to 268 °C; inhibition at 12.5 µM (aromatase (CYP19)): 4% |
| COc1c2ccoc2cc2oc(=O)ccc12 [bergapten] |  | significantly reduced |  |  |  |  |  |  |  | IC50 [11]: 1.2 µM; levels of estrogen receptor [12]: reduced |
